Where a name gives a salt, the structure may show the parent alone.
What was measured:
[1] = biological target: human muscarinic M3 receptor (Homo sapiens, UniProt P20309); assay: Whole cell β-lactamase reporter assay in CHO cells expressing the hM3 receptor (antagonist activity); format: cell-based; settings: 80 nM carbamyl choline, IC50 converted to Ki by Cheng-Prusoff
Procedure: Functional Assessment of Antagonist Activity Using a Whole Cell β-Lactamase Reporter Assay in CHO Cells Expressing the hM3 Receptor.
CHO (Chinese Hamster Ovary) cells recombinantly expressing the human muscarinic M3 receptor were transfected with the NFAT_β-Lac_Zeo plasmid. Cells were grown in DMEM with Glutamax-1, supplemented with 25 mM HEPES(Life Technologies 32430-027), containing 10% FCS (Foetal Calf Serum; Sigma F-7524), […] Sodium pyruvate (Sigma S-8636), NEAA (non-Essential Amino Acids; Invitrogen 11140-035) and […] Zeocin (Invitrogen R250-01).
Cells were harvested for assay when they reached 80-90% confluency using enzyme free cell Dissociation Solution (Life technologies 13151-014) incubated with the cells for 5 min at 37° C. in an atmosphere containing 5% CO2. Detached cells were collected in warmed growth media and centrifuged at 200 rpm for 10 min, washed in PBS (Phosphate Buffered Saline; Life Technologies 14190-094) and centrifuged again as just described. The cells were re-suspended at 2×10^5 cells/ml in growth medium (composition as described above). 20 μl of this cell suspension was added to each well of a 384 well black clear bottomed plate (Greiner Bio One 781091-PFI). The assay buffer used was PBS supplemented with 0.05% Pluronic F-127 (Sigma 9003-11-6) and 2.5% DMSO. Muscarinic M3 receptor signalling was stimulated using 80 nM carbamyl choline (Aldrich N240-9) incubated with the cells for 4 h at 37° C./5% CO2 and monitored at the end of the incubation period using a Tecan SpectraFluor+plate reader (λ−excitation 405 nm, emission 450 nm and 503 nm). Compounds under test were added to the assay at the beginning of the 4 h incubation period and compound activity measured as the concentration dependent inhibition of the carbamyl choline induced signal. Inhibition curves were plotted and IC50 values generated using a 4-parameter sigmoid fit and converted to Ki values using the Cheng-Prusoff correction and the KD value for carbamyl choline in the assay.

[2] = biological target: human adrenergic B2 receptor (Homo sapiens, UniProt P07550); assay: Whole cell luciferase reporter assay in CHO cells expressing the hB2 receptor (agonist potency); format: cell-based; settings: 4 h incubation, read-out: EC50 - beta2
Procedure: Functional Assessment of Agonist Potency and Efficacy Using a Whole Cell Luciferase Reporter Assay in CHO Cells Expressing the hB2 Receptor.
CHO (Chinese Hamster Ovary) cells recombinantly expressing the human adrenergic B2 receptor and transfected with a luciferase enzyme reporter gene were maintained in growth media composed of F12:DMEM (Sigma D6421) containing 10% Foetal Bovine Serum (FBS: Sigma F03921) 10 μg/ml puromycin (Sigma N277698), 0.5 mg/ml Geneticin G418 (Sigma G7034) and 2 mM L-glutamine (Sigma G7513). The cells were kept in sterile conditions at 37° C., in an atmosphere containing 5% CO2.
hB2 Luciferase Assay Protocol
Cells were harvested for assay when they reached 80-90% confluency using enzyme free cell Dissociation Solution (Life technologies 13151-014) incubated with the cells for 5 min at 37° C. in an atmosphere containing 5% CO2. Detached cells were collected in warmed growth media (composition described above), and re-suspended in assay media (F12:DMEM (Sigma D6421) containing 1% Foetal Bovine Serum (FBS: Sigma F03921), 10 μg/ml puromycin (Sigma N277698), 0.5 mg/ml Geneticin G418 (Sigma G7034) and 2 mM L-glutamine (Sigma G7513))to give a viable cell concentration of 1×10^6 cells/ml. 10 ul of this suspension was added to each well of a tissue culture treated low volume 384 well plate (Greiner788073) and the plate incubated in an atmosphere containing 5% CO2 at 37° C. for 2 h. Concentration ranges of test compounds were prepared in phosphate Buffered Saline containing 0.05% pluronic-F127 (Sigma P2443) and 2.5% DMSO. 2 μl of each test concentration were added to the appropriate 384 plate well and returned to the incubator for a further 4 h. At the end of the incubation period 4 μl of Steady-Glo reagent (Steady-Glo Luciferase assay system (Promega E2520) was added to each well and the plate read immediately in a Leadseeker Plate reader (Amersham Bioscience) using a 660 nm filter. Concentration effect curves were plotted and EC50 values generated using a 4-parameter sigmoid fit using an in-house data analysis programme. Isoprenaline was run in every assay as a reference standard.

Chain of human adrenergic B2 receptor (P07550 whole entry): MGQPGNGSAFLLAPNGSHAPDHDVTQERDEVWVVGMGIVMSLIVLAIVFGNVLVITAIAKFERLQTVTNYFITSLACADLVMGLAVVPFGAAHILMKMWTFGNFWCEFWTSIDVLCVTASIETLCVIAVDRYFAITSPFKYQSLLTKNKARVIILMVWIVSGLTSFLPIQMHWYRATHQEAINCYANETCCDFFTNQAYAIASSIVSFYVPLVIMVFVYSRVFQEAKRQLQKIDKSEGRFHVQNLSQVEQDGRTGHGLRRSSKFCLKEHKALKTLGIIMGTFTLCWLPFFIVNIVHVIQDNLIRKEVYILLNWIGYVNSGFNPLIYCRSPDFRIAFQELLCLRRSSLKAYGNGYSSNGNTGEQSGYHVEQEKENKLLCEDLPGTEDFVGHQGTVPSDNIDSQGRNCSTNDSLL
Chain of human muscarinic M3 receptor (P20309 whole entry): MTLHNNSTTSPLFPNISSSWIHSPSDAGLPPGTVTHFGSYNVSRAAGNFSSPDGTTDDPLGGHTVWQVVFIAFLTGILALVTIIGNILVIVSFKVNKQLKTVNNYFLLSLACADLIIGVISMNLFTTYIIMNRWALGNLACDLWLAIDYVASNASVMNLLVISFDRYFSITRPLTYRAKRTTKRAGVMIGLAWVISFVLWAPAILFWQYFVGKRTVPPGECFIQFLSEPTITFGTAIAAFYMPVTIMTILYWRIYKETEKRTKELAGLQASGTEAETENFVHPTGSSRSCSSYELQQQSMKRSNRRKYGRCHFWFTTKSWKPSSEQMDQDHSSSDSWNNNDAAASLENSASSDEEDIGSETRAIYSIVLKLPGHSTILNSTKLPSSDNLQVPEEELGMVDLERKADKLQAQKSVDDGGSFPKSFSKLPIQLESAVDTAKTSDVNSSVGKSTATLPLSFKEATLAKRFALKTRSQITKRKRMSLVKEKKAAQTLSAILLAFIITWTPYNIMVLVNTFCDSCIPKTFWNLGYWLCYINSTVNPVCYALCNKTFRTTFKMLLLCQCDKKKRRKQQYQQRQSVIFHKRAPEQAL

Row | Ki [1] [nM] | EC50 [2] [nM] | SMILES
1 | 0.3 | 0.2 | CC(C)N(CC[C@H](c1ccccc1)c1cc(CCOc2ccc(CCNC[C@H](O)c3ccc(O)c(NS(C)(=O)=O)c3)cc2)ccc1O)C(C)C [Example 19, N-{5-[(1R)-2-({2-[4-(2-{3-[(1R)-3-(diisopropylamino)-1-phenylpropyl]-4-hydroxyphenyl}ethoxy)phenyl]ethyl}amino)-1-hydroxyethyl]-2-hydroxyphenyl}methanesulfonamide succinate salt]
2 | 2 | 1.3 | CC(C)N(CC[C@H](c1ccccc1)c1cc(CCCCCCCCNC[C@H](O)c2ccc(O)c(NS(C)(=O)=O)c2)ccc1O)C(C)C [Example 16, N-(5-{(1R)-2-[(8-{3-[(1R)-3-(diisopropylamino)-1-phenylpropyl]-4-hydroxyphenyl}octyl)amino]-1-hydroxyethyl}-2-hydroxyphenyl)methanesulfonamide]

Source: patent US7612084B2, “Amine derivatives for the treatment of asthma and COPD” (Pfizer Inc, priority 2006, dated 2009)
